# Publication PMC5962072, “Structural insights on the efficient catalysis of hydroperoxide reduction by Ohr: Crystallographic and molecular dynamics approaches” (PLoS ONE, 2018)
# Target: T1, XfOhr (Ohr from Xylella fastidiosa) (Xylella fastidiosa, UniProt Q9PCF4)
# T1 construct: gene XF_1827
# T1 sequence (Q9PCF4 1-143): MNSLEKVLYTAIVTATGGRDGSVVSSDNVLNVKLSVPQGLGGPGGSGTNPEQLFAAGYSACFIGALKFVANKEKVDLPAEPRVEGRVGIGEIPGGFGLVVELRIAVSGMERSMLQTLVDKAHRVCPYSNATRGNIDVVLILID
structure (smiles),measurement,value
NC(=O)CCCC[C@@H](S)CCS [dihydrolipoamide],"lipoamide-lipoamide dehydrogenase peroxidase-coupled assay, NADH decay at 340 nm",XfOhr R19A and XfOhr E51A presented only residual dihydrolipoamide-dependent peroxidase activity
